Drawing on patent US20220062436A1, “DRUG-PROTEIN CONJUGATES” (priority 2012, published 2022), this text covers IC50 for 1 compound.

Square brackets hold non-standard residues; d marks the D form. Peptide text beside a SMILES is read from it. * marks the point of attachment. Dolaproine = CO[C@@H]([C@@H]1CCCN1)[C@@H](C)C(=O)O; Dil = CC[C@H](C)[C@H](NC)[C@@H](CC(=O)O)OC; X1 = C[C@@H](N*)[C@@H](O)c1ccccc1; NMeV = CN[C@H](C(=O)O)C(C)C

The test system of assay [1] is HER2-positive SK-BR-3 cells. Put plainly: Cell viability assay (CellTiter Glo luminescence), inhibition of cell growth. The assay is classed as cell-based. The note with it: 96 h incubation. On the procedure: (§1) The in vitro efficacy of the mAb-reagent 1 conjugates were determined by measuring the inhibitory effect on cell growth of HER-2 receptor over-expressing cancer cell lines.
(§2) Loss of tumour cell viability following treatment with cytotoxic drugs or ADCs in vitro can be measured by growing cell lines in the presence of increasing concentrations of drugs or ADCs and quantifying the loss of proliferation or metabolic activity using CellTiter Glo® Luminescence reagent (Promega Corp. Technical Bulletin TB288; Lewis Phillips G. D, Cancer Res 2008; 68:9280-9290). The protocol describes cell seeding, drug treatment and determination of the cell viability in reference to untreated cells based on ATP synthesis, which is directly related to the number of cells present in the well.
(§3) HER2-positive SK-BR-3 and BT-474 cells were trypsinised with 3 mL Trypsin EDTA for 5-15 min. Trypsinisation was stopped by adding 10 mL complete medium, and cells were transferred to a 50 mL Falcon tube. Cells were counted using a Neubauer haemocytometer and adjusted to a cell density of 1×10^5/mL for BT-474 and 5×10^4/mL for SK-BR-3 respectively. Cells were seeded (100 μL/well) into poly-D-lysine coated opaque-walled 96-well plates and incubated for 24 h at 37° C. and 5% CO2. Tumour cell lines SK-BR-3 (ATCC-HTB-30) and BT-474 (ATCC-HTB-20) were purchased from the American Type Culture Collection. SK-BR-3 cells were grown in McCoy's 5A medium (Life Technologies®), 10% fetal bovine serum, 100 u/mL Penicillin and 100 μg/mL Streptomycin. BT-474 cells were grown in DMEM/F-12 medium (Life Technologies®), 10% fetal bovine serum, 100 u/mL Penicillin and 100 μg/mL Streptomycin. […]
(§4) The cell viability assay was carried out using the Cell-Titer Glo® Luminescence reagent, as described by the manufacturer's instructions, (Promega Corp. Technical Bulletin TB288; Lewis Phillips G. D, Cancer Res 2008; 68:9280-9290). […] Luminescence was recorded using a plate reader (e.g. MD Spectramax M3 plate reader), and data subsequently analysed using a four parameter non-linear regression model.
(§5) The results are shown in FIG. 6, which illustrates cell viability responses to treatment with either antibody-reagent 1 conjugate within SKBR-3 or BT-474 cells. Viability is expressed as % of untreated cells. […]
(§6) The in vitro efficacy of the reagent 6 and reagent 9 antibody conjugates prepared in Example 12 were determined by measuring the inhibitory effect on cell growth of HER-2 receptor over-expressing cancer cell lines by the method of Example 9.
(§7) The results are shown in FIG. 7, which illustrates cell viability responses to treatment with either reagent 6 conjugate or reagent 9 conjugate within SKBR-3 or BT-474 cells. Viability is expressed as % of untreated cells. […]

For assay [2], the system named is HER2-positive BT-474 cells. The description is as above. The assay is classed as cell-based. The note with it: 96 h incubation. Here is the method: as §1, §2, §3, §4, §5, §6, §7

Take `CC[C@H](C)[C@@H]([C@@H](CC(=O)N1CCC[C@H]1[C@H](OC)[C@@H](C)C(=O)N[C@H](C)[C@@H](O)c1ccccc1)OC)N(C)C(=O)[C@@H](NC(=O)[C@@H](NC)C(C)C)C(C)C` [MMAE, monomethyl auristatin E] (H-[NMeV]V[Dil][Dolaproine]-X1): the IC50 in assay [1] (Example 9, Table 5) amounted to 0.2 nM; in assay [1] (Example 13, Table 7), 0.27 nM; in assay [2] (Example 9, Table 5), 0.75 nM; in assay [2] (Example 13, Table 7), 0.85 nM.
